Data: patent publication US20240390487A1, “TLR AGONISTS FOR REDUCING ACTIVATION-INDUCED PD-1 EXPRESSION ON T CELLS AND METHODS OF USE” (WISCONSIN ALUMNI RESEARCH FOUNDATION, priority 2016, published 2024)

Experiments:
[1] = system: OT-1 transgenic splenocytes; assay: In vitro stimulation of OT-1 splenocytes with peptide antigen in the presence of TLR agonists, surface markers by flow cytometry; format: cell-based, mice; design: key to 4-1BB / PD-1 / LAG3 / CD160 / CD244.2 / BTLA / VISTA: “+” means increase; “−” means decrease; “=” means no change; “=/+” or “=/−” means the change is there but not significant; “=/+” or “=/−” means the change is there but not significant; conditions: for 4-1BB / LAG3 / PD-1: OT-1 splenocytes, high affinity antigen plus TLR agonist, versus antigen alone
Method: T cell activation was measured by the levels of marker 4-1BB (a/k/a CD137, a member of the TNF receptor superfamily). The level of PD-1 expression was also assessed in these cells (FIG. 1B).
There was no difference in LAG3 expression between the control cells and cells treated with any of the assayed TLR agonists.
OT-1 transgenic splenocytes were treated with high affinity antigen in combination with Pam3CSK4 (TLR1 and 2 agonist), Gardiquimod (TLR7 agonist) or no TLR agonist and the levels of different checkpoint markers or T cell stimulation (measured by 4-1BB, FIG. 5) were assayed. The checkpoint markers BTLA (FIG. 6), VISTA (FIG. 7), CD160 (FIG. 8) and CD244.2 (FIG. 9) were assayed.
TLR stimulation at the time of T-cell activation in vitro affects expression of PD-1. Given that CpG-rich DNA is a TLR9 agonist and Lm is a TLR2 agonist, we questioned whether TLR stimulation with different ligands could similarly affect expression of different T-cell checkpoint inhibitors. […] OT-1 splenocytes were stimulated in vitro with peptides of different affinity for MHC class I (high-affinity SIINFEKL peptide (SEQ ID NO:1, OVA), moderate-affinity SIINTEKL peptide (SEQ ID NO:2, FT), or low-affinity SIINFEKP peptide (SEQ ID NO:7, LP)), alone or in the presence of different TLR ligands (TLR 1/2 (Pam3CSK4), TLR 3 (Poly I:C), TLR 4 (MPLAs), TLR 7 (Gardiquimod), TLR 7/8 (R848), or TLR 9 (ODN1826)). […] Similarly, LAG-3 expression increased by day 3, but was not affected by the presence of different TLR ligands. […] This reduction in PD-1 expression was observed most with the high-affinity SIINFEKL (SEQ ID NO:1) epitope, but also observed following activation with lower affinity epitopes. Given these findings, we evaluated expression of multiple other T-cell checkpoint molecules following T-cell activation in the presence of TLR ligands. […] Cytotoxic T-lymphocyte-associated protein 4 (CTLA-4) expression, however, was increased in the presence of TLR1/2 agonist. Similar results were found activating OT-1 cells with the lower affinity FT (SIINTEKL peptide (SEQ ID NO:2)), LP (SIINFEKP peptide (SEQ ID NO:7), or LY (SIINFEKY, SEQ ID NO:8) epitopes (FIG. 19).
In vitro T-cell stimulation: Spleens were collected from OT-1 mice, processed through a mesh screen, and splenocytes were isolated by centrifugation after red blood cell osmotic lysis with ammonium chloride/[…] lysis buffer (0.15 M NH4Cl, 10 mM KHCO3, 0.1 mM EDTA). Splenocytes were cultured at 2×10^6/mL in RPMI 1640 medium supplemented with L-glutamine, 10% fetal calf serum (FCS), 200 U/mL penicillin/streptomycin, 1% sodium pyruvate, 1% HEPES, 50 μM β-MeOH, and 2 μg/mL of the designated peptide. TLR agonists were all purchased from InvivoGen (San Diego, CA) and added one hour before peptides at the following optimal concentrations based on preliminary studies and previously reported results: 300 ng/ml Pam3CSK4, 10 μg/mL Poly(I:C) HMW, 10 μg/ml MPLAs, 3 μg/ml Gardiquimod, 10 μg/ml R848, 5 μM ODN 1826. At the time points indicated, cells were stained, fixed for 15 min at 4° C. in cytofix (BD Biosciences (BD), San Jose, CA; 554655), and frozen in FCS+10% DMSO. After all time points were collected, cells from all times were thawed, rinsed and resuspended in PBS+3% FCS+1 mM EDTA and analyzed by flow cytometry. Cells were stained for 30 min at 4° C. in a 1:4 dilution of brilliant stain buffer (BD 563794) in PBS+3% FCS+1 mM EDTA. In order to assess co-stimulation, blocking antibodies for CD80 (0.6 μg/mL), CD86 (0.25 μg/mL) or OX40L (0.6 μg/mL) were added 1 hour prior to antigen.

[2] = system: OT-1 CD8+ T cells; assay: Adoptive transfer of OT-1 T cells and immunization of C57BL/6 mice, marker expression on splenic OT-1 T cells; format: in vivo
Source text: Vaccine type can affect expression of T-cell checkpoint molecules on activated CD8+ T cells: This Example used an ovalbumin vaccination model. OT-1 cells were adoptively transferred to naïve C57BL/6 mice. The day after transfer, mice were immunized once with (a) DNA encoding ovalbumin, (b) Listeria monocytogenes (Lm) encoding ovalbumin, (c) OVA257-264 peptide (SIINFEKL (SEQ ID NO:1)), (d) SIINFEKL peptide (SEQ ID NO:1) with DNA vector, (e) DNA vector alone, (f) Lm encoding control vector with no antigen, or (g) NS (non-specific) peptide. Splenocytes were collected the day after vaccination for expression of cell surface markers on antigen-specific OT-1 cells. […] LAG-3 expression was not reduced in the presence of Lm co-administered with peptide.
TLR stimulation at the time of T-cell activation reduced expression of PD-1 in vivo: To determine whether TLR stimulation at the time of T-cell activation with vaccination elicited a similar reduction in PD-1 in vivo, OT-1 cells were adoptively transferred to naïve C57BL/6 mice as above, and immunized once with OVA or FT peptide (or non-specific peptide) one day later in the presence or absence of a TLR 1/2, TLR7, or TLR9 ligand. Splenocytes were collected from groups up to 14 days after immunization and evaluated for expression of 4-1BB, PD-1 and LAG-3.
Adoptive transfer and immunization of wild type C57BL/6 (B6) mice: OT-1 splenocytes were harvested and CD8+ T cells were isolated as described above. 2×10^6 OT-1 T cells were adoptively transferred into 6- to 10-week old female B6 mice via intraperitoneal injection. The day following transfer, mice were immunized subcutaneously with 100 μg SIINFEKL peptide (SEQ ID NO:1) in PBS without adjuvant, intradermally with 100 μg plasmid encoding full length secreted chicken egg ovalbumin (pCI-neo-sOVA (psOVA), Addgene plasmid #25098, Cambridge, MA), intraperitoneally with 5×10^6 cfu of a Listeria monocytogenes vector encoding ovalbumin (Lm-OVA, gift of JD Sauer), or vehicle or corresponding wild-type Lm or DNA plasmid vector. TLR agonists were co-injected with the vaccine at the following concentrations: 20 μg/mouse Pam3CSK4, 100 μg/mouse Gardiquimod, 50 μg/mouse ODN 1826, or vehicle. Mice were euthanized at the times indicated. Spleens were collected, processed as described above, and T-cell populations analyzed by flow cytometry. Data collected on different days were normalized using rainbow beads (Spherotech, Lake Forest, IL; RFP-30-5A).

[3] = system: ovalbumin-expressing E.G7 cells; assay: Ovalbumin tumor treatment study: peptide immunization with or without TLR agonist; format: in vivo, mice; conditions: FT peptide relative to high-affinity OVA peptide
Method: OT-1 T cells were then adoptively transferred and the following day were immunized with SIINFEKL (SEQ ID NO:1, OVA) or FT peptide (SEQ ID NO:2) alone or with TLR1/2 or TLR7 agonist. Other groups were immunized with 100 μg anti-PD-1 antibody delivered the following day. […] This anti-tumor effect was not observed with TLR agonist treatment alone (FIG. 22). […] This was associated with a reduced PD-1 (but not LAG-3) expression on CD8+ TIL (FIG. 17C).
Ovalbumin tumor treatment studies: 10^6 ovalbumin-expressing E.G7 PD-L 1^high cells were injected subcutaneously into 6- to 10-week old female B6 mice. Ten to fifteen days post injection, when tumors were palpable and similarly sized (˜0.2 cm^3), 2×10^6 naïve OT-1 CD8+ T cells were adoptively transferred to each mouse as described above. The following day mice were immunized subcutaneously with 100 μg of an individual peptide (SIINFEKL (SEQ ID NO:1) or variant, LifeTein) in PBS, with or without TLR agonists as described above. In the group receiving PD-1 blocking antibody, 100 μg of antibody (clone G4 (52)) was injected intraperitoneally on the day following vaccination. Tumor volume was measured over time using calipers and calculated in cubic centimeters according to the following formula: (π/6)*(long axis)*(short axis)^2. Tumors obtained at necropsy were digested in media containing 1 mg/mL collagenase and 20 μg/mL DNAse I (Sigma, St. Louis, MO) for 1-2 hours at 37° C. and passed through a 100-μm screen to obtain a single-cell suspension. Tumor cells and tumor-infiltrating lymphocytes (TILs) were stained and analyzed by flow cytometry using the following panel: CD3-FITC (BD 555274), CD4-BUV395 (BD 563790), CD8-BUV805 (BD 564920), LAG-3-BV711 (BD 563179), PD1-PECF594 (BD 562523), PDL1-PECy7 (BD 558017), 41BB-PerCPeF710) (eBioscience 46-1371-82), CD45-BV510 (BD 563891) and Live/Dead Ghost dye 780 (Tonbo, San Diego, CA 13-0865-T100) or corresponding fluorescently labeled IgG controls.

## CCOCc1nc2c(N)nc3ccccc3c2n1CC(C)(C)O [R848, Resiquimod]
[1]
  4-1BB: =
  LAG3: =
  PD-1: −

## ODN1826
[2]; OVA or FT peptide immunization with TLR ligand versus peptide alone, splenocytes up to 14 days, early after T-cell activation
  PD-1 expression on OT-1 CD8+ T cells in vivo: significantly reduced
[1]
  4-1BB: =
  LAG3: =/−
  PD-1: −
[1]; in words, SIINFEKL plus TLR agonist versus antigen alone, up to 4 days
  PD-1 expression on activated T cells: significantly reduced

## SIINFEKL [SIINFEKL peptide]
[2]; one immunization, splenocytes after vaccination, Lm co-administered with peptide
  LAG-3 expression by vaccine type: significantly increased
[2]; one immunization, splenocytes after vaccination, Lm or DNA co-administered at the site of peptide immunization
  4-1BB expression by vaccine type: strongest activation
[2]; one immunization, splenocytes after vaccination, Lm or DNA co-administered with peptide versus peptide
  PD-1 expression by vaccine type: significantly increased
[1]; OVA versus FT and LP peptides
  T-cell activation as measured by 4-1BB expression, by peptide affinity: greatest T-cell activation

## SIINTEKL [FT peptide]
[3]
  anti-tumor response of peptide immunization alone: greater anti-tumor response
